In patent publication US11629123B2, “Selenopsammaplin A and derivative thereof, preparation method therefor, and composition for preventing and treating cancer, containing same as active ingredients” (priority 2017, dated 2023):
Entries after “also recorded” stand apart in the source; their conditions may differ. Read-outs that look alike come from different tables or passages of the source.

Key:
Format in all cases: cell-based
[1] = system: colorectal cancer cell line HCT116; experiment: cells
Experimental: (§1) To confirm the in vitro growth inhibitory efficacy of the samples prepared in Examples 1 to 28 against human lung cancer and colorectal cancer cell lines, the experiments were performed as follows by applying the method described in the literature (Lee S K et al ([…]) Chem Biol Interact 115:215-28). A human lung cancer cell line A549 and a colorectal cancer cell line HCT116 were acquired from the American Type Culture Collection (ATCC, Manassas, Va., USA) and used.
(§2) A549, HCT116 cells were subcultured once or twice weekly under conditions of 37° C. and 5% CO2 using Roswell Park Memorial Institute (RPMI) Medium 1640 (RPMI 1640) containing 10% heat-inactivated Fetal Bovine Serum (FBS), 100 units/mL penicillin, 100 μg/mL streptomycin, and 250 ng/mL amphotericin B. All cells were thawed from liquid nitrogen, subcultured three times or more, and then used in the experiment.
(§3) The effects of the compounds obtained in Examples 1 to 28 on cell growth were measured by a sulforhodamine B (SRB) method (Lee et al (1998) Chem Biol Interact 115: 215-28).
(§4) Specifically, the human lung cancer and colon cancer cell lines used in the present invention were subcultured in a RPMI medium containing 10% FBS, 1% PSF, and the like, 10 μl of a sample dissolved in 10% DMSO and 190 μl (5×10^4 cells/ml) of the cell suspension were placed in each well of a 96-well plate. 190 μl of the cell suspension was placed in at least 16 wells, cultured for 30 minutes, and used as a negative control (zero-day control) before the experiment. The cultured cells were fixed with 10% trichloroacetic acid (TCA) and then stained with an SRB solution, the staining solution was dissolved with 10 mM Tris-base, and absorbance was measured at 515 nm. Using the cell culture in 10% DMSO as a control, cell viability according to the treatment with each test sample was measured using the following Equation 1. % Cell viability=(OD(sample)−OD(0-day))/(OD(10% DMSO)−OD(0-day))×100 [Equation 1]
(§5) When the control in which the sample was not treated was defined as 100%, the value of the sample treatment group was shown as a percentage with respect to the control, and each test sample treatment was determined by the mean value±SEM of the duplicate or triplicate test. The IC50 value is the concentration of the test sample for 50% viability.

[2] = system: human lung cancer cell line A549; experiment: cells
Experimental: as §1, §2, §3, §4, §5

[3] = system: human lung cancer and colorectal cancer cell lines; experiment: In vitro growth inhibition (SRB), summary over both cell lines; settings: compared with control compound etoposide
Experimental: as §1, §2, §3, §4, §5

[4] = Homo sapiens, HCT-116, read-out: HCT116-LC50, Table 2, SRB, concentration for 50% viability
[5] = Homo sapiens, HCT-116, read-out: HCT116-LC50, Table 3, SRB, concentration for 50% viability
[6] = Homo sapiens, A549, read-out: A549-LC50, Table 2, SRB, concentration for 50% viability
[7] = Homo sapiens, A549, read-out: A549-LC50, Table 3, SRB, concentration for 50% viability
[8] = Homo sapiens, HCT-116, read-out: HCT116-LC50
[9] = Homo sapiens, A549, read-out: A549-LC50

Structure (SMILES) | CC50 [1, 5] | CC50 [2, 7] | CC50 [1, 8] | CC50 [2, 9] | further results
COc1cc([C@@H]2c3cc4c(cc3[C@@H](O[C@@H]3O[C@@H]5CO[C@@H](C)O[C@H]5[C@H](O)[C@H]3O)[C@H]3COC(=O)[C@H]23)OCO4)cc(OC)c1O [Etoposide, reference compound] | 610 nM | 710 nM |  |  | CC50 [1, 4]: 900 nM; CC50 [2, 6]: 420 nM
O=C(NCCSSCCNC(=O)/C(Cc1ccc(O)c(Br)c1)=N/O)/C(Cc1ccc(O)c(Br)c1)=N/O [Psammaplin A] |  |  |  |  | CC50 ([1]; Table 2, SRB, concentration for 50% viability, read-out: HCT116-LC50): 610 nM; CC50 ([1]; Table 3, SRB, concentration for 50% viability, read-out: HCT116-LC50): 610 nM; CC50 ([2]; Table 2, SRB, concentration for 50% viability, read-out: A549-LC50): 1760 nM; CC50 ([2]; Table 3, SRB, concentration for 50% viability, read-out: A549-LC50): 1760 nM
O=C(NCC[Se][Se]CCNC(=O)/C(Cc1ccc(O)c(Br)c1)=N/O)/C(Cc1ccc(O)c(Br)c1)=N/O [SSM-1, (2E,2′E)-N,N′-(diselanediylbis(ethane-2,1-diyl))bis(3-(3-bromo-4-hydroxyphenyl)-2-(hydroxyimino)propanamide)] |  |  |  |  | CC50 [1, 4]: 10 nM; CC50 [2, 6]: 30 nM; cancer cell growth inhibitory activity compared to etoposide [3]: higher inhibitory activity than a control compound etoposide; also recorded: excellent cancer cell growth inhibitory potential even compared to etoposide
O=C(NCC[Se][Se]CCNC(=O)/C(Cc1ccc(O)c(Cl)c1)=N/O)/C(Cc1ccc(O)c(Cl)c1)=N/O [SSM-2, (2E,2′E)-N,N′-(diselanediylbis(ethane-2,1-diyl))bis(3-(3-chloro-4-hydroxyphenyl)-2-(hydroxyimino)propanamide)] |  |  |  |  | CC50 [1, 4]: 20 nM; CC50 [2, 6]: 50 nM; cancer cell growth inhibitory activity compared to etoposide [3]: higher inhibitory activity than a control compound etoposide; also recorded: excellent cancer cell growth inhibitory potential even compared to etoposide
O=C(NCC[Se][Se]CCNC(=O)/C(Cc1ccc(F)cc1)=N/O)/C(Cc1ccc(F)cc1)=N/O [SSM-5, (2E,2′E)-N,N′-(diselanediylbis(ethane-2,1-diyl))bis(3-(4-fluorophenyl)-2-(hydroxyimino)propanamide)] |  |  |  |  | CC50 [1, 4]: 110 nM; CC50 [2, 6]: 100 nM
O=C(NCC[Se][Se]CCNC(=O)/C(Cc1ccc(Cl)cc1)=N/O)/C(Cc1ccc(Cl)cc1)=N/O [SSM-6, (2E,2′E)-N,N′-(diselanediylbis(ethane-2,1-diyl))bis(3-(4-chlorophenyl)-2-(hydroxyimino)propanamide)] |  |  | 280 nM | 250 nM | 
O=C(NCC[Se][Se]CCNC(=O)/C(Cc1ccc(Br)cc1)=N/O)/C(Cc1ccc(Br)cc1)=N/O [SSM-7, (2E,2′E)-N,N′-(diselanediylbis(ethane-2,1-diyl))bis(3-(4-bromophenyl)-2-(hydroxyimino)propanamide)] |  |  |  |  | CC50 [1, 4]: 300 nM; CC50 [2, 6]: 320 nM
O=C(NCC[Se][Se]CCNC(=O)/C(Cc1ccc(F)c(F)c1)=N/O)/C(Cc1ccc(F)c(F)c1)=N/O [SSM-8, (2E,2′E)-N,N′-(diselanediylbis(ethane-2,1-diyl))bis(3-(3,4-difluorophenyl)-2-(hydroxyimino)propanamide)] |  |  | 190 nM | 200 nM | 
O=C(NCC[Se][Se]CCNC(=O)/C(Cc1ccc(Cl)c(Cl)c1)=N/O)/C(Cc1ccc(Cl)c(Cl)c1)=N/O [SSM-9, (2E,2′E)-N,N′-(diselanediylbis(ethane-2,1-diyl))bis(3-(3,4-dichlorophenyl)-2-(hydroxyimino)propanamide)] |  |  | 520 nM | 280 nM | 
O=C(NCC[Se][Se]CCNC(=O)/C(Cc1ccc(OCc2ccccc2)cc1)=N/O)/C(Cc1ccc(OCc2ccccc2)cc1)=N/O [SSM-11, (2E,2′E)-N,N′-(diselanediylbis(ethane-2,1-diyl))bis(3-(4-(benzyloxy)phenyl)-2-(hydroxyimino)propanamide)] |  |  |  |  | CC50 [1, 4]: 100 nM; CC50 [2, 6]: 140 nM
CC(C)(C)c1ccc(C/C(=N\O)C(=O)NCC[Se][Se]CCNC(=O)/C(Cc2ccc(C(C)(C)C)cc2)=N/O)cc1 [SSM-13, (2E,2′E)-N,N′-(diselanediylbis(ethane-2,1-diyl))bis(3-(4-(tert-butyl)phenyl)-2-(hydroxyimino)propanamide)] |  |  | 130 nM | 100 nM | 
O=C(NCC[Se][Se]CCNC(=O)/C(Cc1ccc2ccccc2c1)=N/O)/C(Cc1ccc2ccccc2c1)=N/O [SSM-14, (2E,2′E)-N,N′-(diselanediylbis(ethane-2,1-diyl))bis(2-(hydroxyimino)-3-(naphthalen-2-yl)propanamide)] |  |  |  |  | CC50 [1, 4]: 120 nM; CC50 [2, 6]: 380 nM
O=C(NCC[Se]Sc1ccccc1)/C(Cc1ccc(O)c(Br)c1)=N/O [SSM-15, (E)-3-(3-bromo-4-hydroxyphenyl)-2-(hydroxyimino)-N-(2-((phenylthio)selanyl)ethyl)propanamide] | 10 nM | 100 nM |  |  | 
O=C(NCC[Se]Sc1ccccc1)/C(Cc1ccc(O)c(Cl)c1)=N/O [SSM-16, (E)-3-(3-chloro-4-hydroxyphenyl)-2-(hydroxyimino)-N-(2-((phenylthio)selanyl)ethyl)propanamide] | 90 nM | 110 nM |  |  | 
O=C(NCC[Se]Sc1ccccc1)/C(Cc1ccc(O)c(F)c1)=N/O [SSM-17, (E)-3-(3-fluoro-4-hydroxyphenyl)-2-(hydroxyimino)-N-(2-((phenylthio)selanyl)ethyl)propanamide] | 200 nM | 290 nM |  |  | 
O=C(NCC[Se]Sc1ccccc1)/C(Cc1ccccc1)=N/O [SSM-18, (E)-2-(hydroxyimino)-3-phenyl-N-(2-((phenylthio)selanyl)ethyl)propanamide] | 130 nM | 280 nM |  |  | 
O=C(NCC[Se]Sc1ccccc1)/C(Cc1ccc(F)cc1)=N/O [SSM-19, (E)-3-(4-fluorophenyl)-2-(hydroxyimino)-N-(2-((phenylthio)selanyl)ethyl)propanamide] | 330 nM | 490 nM |  |  | 
O=C(NCC[Se]Sc1ccccc1)/C(Cc1ccc(Cl)cc1)=N/O [SSM-20, (E)-3-(4-chlorophenyl)-2-(hydroxyimino)-N-(2-((phenylthio)selanyl)ethyl)propanamide] |  |  | 330 nM | 490 nM | 
O=C(NCC[Se]Sc1ccccc1)/C(Cc1ccc(Br)cc1)=N/O [SSM-21, (E)-3-(4-bromophenyl)-2-(hydroxyimino)-N-(2-((phenylthio)selanyl)ethyl)propanamide] | 180 nM | 510 nM |  |  | 
O=C(NCC[Se]Sc1ccccc1)/C(Cc1ccc(F)c(F)c1)=N/O [SSM-22, (E)-3-(3,4-difluorophenyl)-2-(hydroxyimino)-N-(2-((phenylthio)selanyl)ethyl)propanamide] |  |  | 310 nM | 480 nM | 
O=C(NCC[Se]Sc1ccccc1)/C(Cc1ccc(Cl)c(Cl)c1)=N/O [SSM-23, (E)-3-(3,4-dichlorophenyl)-2-(hydroxyimino)-N-(2-((phenylthio)selanyl)ethyl)propanamide] |  |  | 50 nM | 280 nM | 
CCOc1ccc(C/C(=N\O)C(=O)NCC[Se]Sc2ccccc2)cc1 [SSM-24, (E)-3-(4-ethoxyphenyl)-2-(hydroxyimino)-N-(2-((phenylthio)selanyl)ethyl)propanamide] | 130 nM | 330 nM |  |  | 
O=C(NCC[Se]Sc1ccccc1)/C(Cc1ccc(OCc2ccccc2)cc1)=N/O [SSM-25, (E)-3-(4-(benzyloxy)phenyl)-2-(hydroxyimino)-N-(2-((phenylthio)selanyl)ethyl)propanamide] | 80 nM | 180 nM |  |  | 
O=C(NCC[Se]Sc1ccccc1)/C(Cc1ccc([N+](=O)[O-])cc1)=N/O [SSM-26, (E)-2-(hydroxyimino)-3-(4-nitrophenyl)-N-(2-((phenylthio)selanyl)ethyl)propanamide] |  |  | 120 nM | 120 nM | 
O=C(NCC[Se]Sc1ccccc1)/C(Cc1ccc2ccccc2c1)=N/O [SSM-28, (E)-2-(hydroxyimino)-3-(naphthalen-2-yl)-N-(2-((phenylthio)selanyl)ethyl)propanamide] | 20 nM | 120 nM |  |  | 
